Tested on: U937 cells
Assay: Delivery of labeled BSA to cells (fluorescent microscope)
Assay type: cell-based
Conditions: for Cells displaying fluorescense: overnight at 37° C.
Procedure: U937 cells were grown to approximately 10^6/ml and centrifuged, washed in growth medium (RPMI), suspended in 3.5 ml of RPMI, and 0.8 ml was placed in each of four 35 mm wells. BSA-BF and BSA-F, each at a concentration of 20 mg/ml, were added to the four wells together with 200 ul of RPMI as follows:
The cell suspensions were incubated overnight at 37° C. One ml of cell suspension was placed in 2.0 ml of RPMI and centrifuged at 1000 rpm for 5 minutes. The supernatants were decanted and the cells were resuspended in 200 ul of RPMI. Samples of each cell suspension were placed on a microscope slide and examined using a fluorescent microscope.

Substance | Localisation of fluorescense in cells undergoing mitosis | Cells displaying fluorescense (20 ul of 20 mg/ml) | Cells displaying fluorescense (50 ul of 20 mg/ml)
BSA-BF: Bovine Serum Albumin labeled by conjugation with both biotin and fluorescein | bright fluorescense that was confined to the nuclei | Approximately 40% | Approximately 40%
BSA-F: Bovine Serum Albumin labeled with fluourescein alone [reference compound] | – | < 5% | < 5%

Source: patent US20040023909A1, “Process for preventing or reducing undesirable immunological effects to infectious agents in subjects” (Enzo Therapeutics, Inc, priority 1997, published 2004)
